In patent US9441012B2, “Fluorinated epoxyketone-based compounds and uses thereof as proteasome inhibitors” (FLUORINOV PHARMA INC., priority 2012, dated 2016):

Tests used:
Assay in all cases: NCI 60 human tumor cell line screen (SRB)
Type in all cases: cell-based
OVCAR-3 = OVCAR-3 (Ovarian Cancer); 48 h
From the text: (§1) Representative compounds of Formula I were screened using the National Cancer Institute (NCI) screening panel, which consists of a panel of 60 different human tumor cell lines, representing leukemia [CCRF-CEM, HL-60 (TB), K-562, MOLT-4, SR], melanoma [LOX IMVI, MALME-3M, M14, SMDA-MB-435, SK-MEL-2, SK-MEL-28, SK-MEL-5, UACC-257 and UACC-62] and cancers of the lung [A549/ATCC, EKVX, HOP-62, HOP-93, NCI-H226, NCI-H23, NCI-H322M, NCI-H460], colon [COLO 205, HCT-116, HCT-15, HT29, KM12, SW-620], brain [SF-268, SF-295, SF-539, SNB-19, SNB-75, U251], ovary [IGROV1, OVCAR-3, OVCAR-4, OVCAR-5, OVCAR-8, NCI/ADR-RES, SK-OV-3], breast [MCF7, MDA-MB-231, BT-549, T-47D, MDA-MB-468], prostate [PC-3, DU-145], and renal[786-0, A498, ACHN, CAKI-1, RXF-393, SN12C, TK-10, UO-31] cancers.
(§2) After 24 h, two plates of each cell line are fixed in situ with TCA, to represent a measurement of the cell population for each cell line at the time of drug addition (Tz). Experimental drugs are solubilised in dimethyl sulfoxide at 400-fold the desired final maximum test concentration and stored frozen prior to use. At the time of drug addition, an aliquot of frozen concentrate is thawed and diluted to twice the desired final maximum test concentration with complete medium containing 50 μg/ml gentamicin. Additional four, 10-fold or ½ log serial dilutions are made to provide a total of five drug concentrations plus control. Aliquots of 100 μl of these different drug dilutions are added to the appropriate microtiter wells already containing 100 μl of medium, resulting in the required final drug concentrations.
(§3) Following drug addition, the plates are incubated for an additional 48 h at 37° C., 5% CO2, 95% air, and 100% relative humidity. For adherent cells, the assay is terminated by the addition of cold TCA (trichloroacetic acid). Cells are fixed in situ by the gentle addition of 50 μl of cold 50% (w/v) TCA (final concentration, 10% TCA) and incubated for 60 minutes at 4° C. The supernatant is discarded, and the plates are washed five times with tap water and air dried. Sulforhodamine B (SRB) solution (100 μl) at 0.4% (w/v) in 1% acetic acid is added to each well, and plates are incubated for 10 minutes at room temperature. After staining, unbound dye is removed by washing five times with 1% acetic acid and the plates are air dried. Bound stain is subsequently solubilised with 10 mM trizma base, and the absorbance is read on an automated plate reader at a wavelength of 515 nm. For suspension cells, the methodology is the same except that the assay is terminated by fixing settled cells at the bottom of the wells by gently adding 50 μl of 80% TCA (final concentration, 16% TCA). Using the seven absorbance measurements [time zero, (Tz), control growth, (C), and test growth in the presence of drug at the five concentration levels (Ti)], the percentage growth is calculated at each of the drug concentration levels. Percentage growth inhibition is calculated as: [(Ti−Tz)/(C−Tz)]×100 for concentrations in which Ti>/=Tz and [(Ti−Tz)/Tz]×100 for concentrations in which Ti<Tz.
(§4) Three dose response parameters are calculated for each experimental agent. Growth inhibition of 50% (GI50) is calculated from [(Ti−Tz)/(C−Tz)]100=50, which is the drug concentration resulting in a 50% reduction in the net protein increase (as measured by SRB staining) in control cells during the drug incubation. The drug concentration resulting in total growth inhibition (TGI) is calculated from Ti=Tz. The LC50 (concentration of drug resulting in a 50% reduction in the measured protein at the end of the drug treatment as compared to that at the beginning) indicating a net loss of cells following treatment is calculated from [(Ti−Tz)/Tz]×100=−50. Values are calculated for each of these three parameters if the level of activity is reached. However, if the effect is not reached or is exceeded, the value for that parameter is expressed as greater or less than the maximum or minimum concentration tested.

MDA-MB-435 = MDA-MB-435 (Melanoma); 48 h
From the text: as §1, §2, §3, §4

OVCAR-8 = OVCAR-8 (Ovarian Cancer); 48 h
From the text: as §1, §2, §3, §4

MCF7 = MCF7 (Breast Cancer); 48 h
From the text: as §1, §2, §3, §4

SF-539 = SF-539 (CNS Cancer); 48 h
From the text: as §1, §2, §3, §4

HCT-15 = HCT-15 (Colon Cancer); 48 h
From the text: as §1, §2, §3, §4

ACHN = ACHN (Renal Cancer); 48 h
From the text: as §1, §2, §3, §4

786-0 = 786-0 (Renal Cancer); 48 h
From the text: as §1, §2, §3, §4

A549/ATCC = A549/ATCC (Non-Small Cell Lung Cancer); 48 h
From the text: as §1, §2, §3, §4

UACC-257 = UACC-257 (Melanoma); 48 h
From the text: as §1, §2, §3, §4

HL-60(TB) = HL-60(TB) (Leukemia); 48 h
From the text: as §1, §2, §3, §4

IGROV1 = IGROV1 (Ovarian Cancer); 48 h
From the text: as §1, §2, §3, §4

Row | Compound | Log10GI50 (OVCAR-3) | Log10LC50 (OVCAR-3) | Log10TGI50 (OVCAR-3) | Log10GI50 (MDA-MB-435) | Log10TGI50 (MDA-MB-435) | Log10GI50 (OVCAR-8) | Log10LC50 (OVCAR-8) | Log10TGI50 (OVCAR-8) | Log10GI50 (MCF7) | Log10LC50 (MCF7) | Log10TGI50 (MCF7) | Log10GI50 (SF-539) | Log10LC50 (SF-539) | Log10TGI50 (SF-539) | Log10GI50 (HCT-15) | Log10LC50 (HCT-15) | Log10TGI50 (HCT-15) | Log10GI50 (ACHN) | Log10LC50 (ACHN) | Log10TGI50 (ACHN) | also measured
1 | Cc1ncc(C(=O)N[C@@H](COC(F)F)C(=O)N[C@@H](COC(F)F)C(=O)N[C@@H](Cc2ccccc2)C(=O)[C@@]2(C)CO2)s1 [Example 1, 2-methyl-thiazole-5-carboxylic acid ((S)-1-{(S)-1-[(S)-1-benzyl-2-((R)-2-methyloxiranyl)-2-oxo-ethylcarbamoyl]-2-difluoromethoxyethylcarbamoyl}-2-difluoromethoxyethyl)-amide] | −7.46 | −6.30 | −6.90 | −7.43 | −6.74 | −5.80 | >−4.00 | >−4.00 | −7.35 | >−4.00 | −4.62 | −7.15 | −4.27 | −6.44 | −5.65 | −4.16 | −4.93 | −6.53 | >−4.00 | −4.81 | Log10LC50 (MDA-MB-435): >−4.00; Log10GI50 (786-0): −6.43; Log10LC50 (786-0): >−4.00; Log10TGI50 (786-0): −4.62; Log10GI50 (A549/ATCC): −6.41; Log10LC50 (A549/ATCC): >−4.00; Log10TGI50 (A549/ATCC): >−4.00; Log10GI50 (UACC-257): −6.87; Log10LC50 (UACC-257): >−4.00; Log10TGI50 (UACC-257): −6.20; Log10GI50 (HL-60(TB)): −6.56; Log10LC50 (HL-60(TB)): >−4.00; Log10TGI50 (HL-60(TB)): >−4.00
2 | C[C@]1(C(=O)[C@H](Cc2ccccc2)NC(=O)[C@H](COC(F)F)NC(=O)[C@H](COC(F)F)NC(=O)CN2CCOCC2)CO1 [Example 26, (S)-N-{(S)-1-[(S)-1-Benzyl-2-((R)-2-methyl-oxiranyl)-2-oxo-ethylcarbamoyl]-2-difluoromethoxyethyl}-3-difluoromethoxy-2-(2-morpholin-4-yl-acetylamino)-propio-namide] | −7.66 | −6.97 | −7.33 | −7.75 | −7.42 | −7.32 | >−4.00 | −6.41 | −7.53 | >−4.00 | −4.89 | −7.63 | −6.48 | −7.26 | −6.47 | >−4.00 | >−4.00 | −7.01 | >−4.00 | >−4.00 | Log10LC50 (MDA-MB-435): −7.10; Log10GI50 (IGROV1): −7.43; Log10LC50 (IGROV1): >−4.00; Log10GI50 (786-0): −7.20; Log10LC50 (786-0): −5.44; Log10TGI50 (786-0): −6.49; Log10GI50 (A549/ATCC): −7.41; Log10LC50 (A549/ATCC): >−4.00; Log10TGI50 (A549/ATCC): −6.13; Log10GI50 (UACC-257): −7.18; Log10LC50 (UACC-257): >−4.00; Log10TGI50 (UACC-257): −6.32; Log10GI50 (HL-60(TB)): −7.45; Log10LC50 (HL-60(TB)): >−4.00; Log10TGI50 (HL-60(TB)): −6.35
3 | CC(C)C[C@H](NC(=O)[C@H](Cc1ccccc1)NC(=O)[C@H](COC(F)F)NC(=O)CN1CCOCC1)C(=O)[C@@]1(C)CO1 [Example 25, (2S)-2-[[(2S)-3-(difluoromethoxy)-2-[(2-morpholinoacetyl)amino]propanoyl]amino]-N-[(1S)-3-methyl-1-[(2R)-2-methyloxirane-2-carbonyl]butyl]-3-phenyl-propanamide] | −7.66 | −6.97 | −7.33 | −7.75 | −7.42 | −7.32 | >−4.00 | −6.41 | −7.53 | >−4.00 | −4.89 | −7.63 | −6.48 | −7.26 | −6.47 | >−4.00 | >−4.00 | −7.01 | >−4.00 | >−4.00 | Log10LC50 (MDA-MB-435): −7.10; Log10GI50 (IGROV1): −7.43; Log10LC50 (IGROV1): >−4.00; Log10TGI50 (IGROV1): −6.38; Log10GI50 (786-0): −7.20; Log10LC50 (786-0): −5.44; Log10TGI50 (786-0): −6.49; Log10GI50 (A549/ATCC): −7.41; Log10LC50 (A549/ATCC): >−4.00; Log10TGI50 (A549/ATCC): −6.13; Log10GI50 (UACC-257): −7.18; Log10LC50 (UACC-257): >−4.00; Log10TGI50 (UACC-257): −6.32; Log10GI50 (HL-60(TB)): −7.45; Log10LC50 (HL-60(TB)): >−4.00; Log10TGI50 (HL-60(TB)): −6.35
4 | C[C@]1(C(=O)[C@H](Cc2ccccc2)NC(=O)[C@H](Cc2ccccc2)NC(=O)[C@H](COC(F)F)NC(=O)CN2CCOCC2)CO1 [Example 29] | −7.35 | −5.66 | −6.71 | −7.63 | −7.17 | −6.59 | >−4.00 | >−4.00 | −7.38 | >−4.00 | >−4.00 | −7.39 | −4.49 | −6.76 | −6.20 | >−4.00 | >−4.00 | −6.59 | >−4.00 | >−4.00 | Log10GI50 (IGROV1): −6.67; Log10LC50 (IGROV1): >−4.00; Log10TGI50 (IGROV1): >−4.00; Log10GI50 (786-0): −6.55; Log10LC50 (786-0): −4.87; Log10TGI50 (786-0): −5.96; Log10GI50 (A549/ATCC): −6.68; Log10LC50 (A549/ATCC): >−4.00; Log10TGI50 (A549/ATCC): >−4.00; Log10GI50 (UACC-257): −6.81; Log10LC50 (UACC-257): >−4.00; Log10TGI50 (UACC-257): −6.00
